Experiment [1] has as its system Raji. Kind of experiment: Antiproliferative activity against human Raji cells assessed as reduction in cell growth incubated for 48 hrs by MTS assay.
Experiment [2] addresses Tyrosine-protein kinase BTK (Homo sapiens, UniProt Q06187). Kind of experiment: Inhibition of human recombinant full length BTK expressed in baculovirus in Sf9 insect cells using Poly (4:1 Glu, Tyr) as substrate incubated for 1 hr by ADP-Glo assay. (In general: In ADP-Glo the light output rises with the ADP produced.)
Experiment [3] relates to Ramos. The experiment is described as follows: Antiproliferative activity against human Ramos cells assessed as reduction in cell growth incubated for 48 hrs by MTS assay. For orientation: Tetrazolium dyes change colour on reduction, which living cells bring about.

SMILES strings stand for the structures.

Results on 35 compounds are retold here after ChEMBL document CHEMBL4346765, “Design, synthesis and biological evaluation of novel dithiocarbamate-substituted diphenylaminopyrimidine derivatives as BTK inhibitors” (Bioorg Med Chem, 2019).

Chain of Tyrosine-protein kinase BTK (Q06187 whole entry): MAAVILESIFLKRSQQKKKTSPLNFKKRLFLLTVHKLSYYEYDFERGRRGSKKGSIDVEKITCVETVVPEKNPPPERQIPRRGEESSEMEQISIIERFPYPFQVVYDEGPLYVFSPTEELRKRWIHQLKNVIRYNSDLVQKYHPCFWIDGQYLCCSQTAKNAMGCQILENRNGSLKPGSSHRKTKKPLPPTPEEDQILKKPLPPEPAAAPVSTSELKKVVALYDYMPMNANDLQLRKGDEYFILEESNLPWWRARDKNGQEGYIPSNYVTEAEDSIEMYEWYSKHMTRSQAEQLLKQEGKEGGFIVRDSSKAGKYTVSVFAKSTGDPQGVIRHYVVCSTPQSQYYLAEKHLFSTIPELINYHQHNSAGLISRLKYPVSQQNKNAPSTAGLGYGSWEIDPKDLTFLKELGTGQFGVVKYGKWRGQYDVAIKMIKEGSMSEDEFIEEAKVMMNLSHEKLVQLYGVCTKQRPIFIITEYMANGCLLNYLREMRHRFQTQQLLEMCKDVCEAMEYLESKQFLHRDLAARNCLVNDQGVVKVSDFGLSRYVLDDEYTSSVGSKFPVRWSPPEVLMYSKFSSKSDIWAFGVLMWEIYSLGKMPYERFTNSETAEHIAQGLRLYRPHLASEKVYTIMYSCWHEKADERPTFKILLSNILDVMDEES

Usually IC50 stands for the concentration that gives 50% inhibition. Turning to `C=CC(=O)Nc1cccc(Nc2nc(Nc3ccc(OCCCSC(=S)N4CCN(C(C)C)CC4)cc3)ncc2F)c1`, the half-maximal inhibitory concentration (IC50) turned out to be 8250 nM in experiment [1], 63.2 nM in experiment [2] and 1360 nM in experiment [3].

Take `C=CC(=O)Nc1cccc(Nc2nc(Nc3ccc(OCCSC(=S)N4CCCC4)cc3)ncc2F)c1`: the figures for the concentration for half-maximal inhibition (IC50) in experiment [1], in experiment [2] and in experiment [3] were 15300 nM, 154 nM and 2970 nM, respectively.

In the case of `C=CC(=O)Nc1cccc(Nc2nc(Nc3ccc(OCCSC(=S)N(CC)CC)cc3)ncc2F)c1`, the IC50 in experiment [1] was 13700 nM; in experiment [2], 23.3 nM; in experiment [3] it was 3540 nM.

For `C=CC(=O)Nc1cccc(Nc2nc(Nc3ccc(OCCCCSC(=S)N(C)C)cc3)ncc2F)c1`, the 50% inhibitory concentration (IC50) came out at 10200 nM in experiment [1], 35.4 nM in experiment [2] and 15400 nM in experiment [3].

For `C=CC(=O)Nc1cccc(Nc2nc(Nc3ccc(OCCSC(=S)N(C)Cc4cccnc4)cc3)ncc2F)c1`, the IC50 in experiment [1] stood at 4840 nM; in experiment [2] it was 30.7 nM; in experiment [3], 2730 nM.

Turning to `C=CC(=O)Nc1cccc(Nc2nc(Nc3ccc(OCCSC(=S)N4CCc5ccccc5C4)cc3)ncc2F)c1`, the IC50 in experiment [1] is over 40000 nM; in experiment [2] it was over 500 nM; in experiment [3], over 40000 nM.

For the compound `C=CC(=O)Nc1cccc(Nc2nc(Nc3ccc(OCCSC(=S)N(CCCC)CCCC)cc3)ncc2F)c1`, the IC50 came out at 20900 nM in experiment [1], 125 nM in experiment [2] and 9210 nM in experiment [3].

As for `C=CC(=O)Nc1cccc(Nc2nc(Nc3ccc(OCCSC(=S)NCc4cc(OC)c(OC)c(OC)c4)cc3)ncc2F)c1`, the IC50 in experiment [1] worked out at 561 nM; in experiment [2], 48.6 nM; in experiment [3], 2250 nM.

With `C=CC(=O)Nc1cccc(Nc2nc(Nc3ccc(OCCSC(=S)NCC)cc3)ncc2F)c1`, the half-inhibitory concentration (IC50) amounted to 8640 nM in experiment [1], 15 nM in experiment [2] and 3440 nM in experiment [3].

`C=CCNC(=S)SCCOc1ccc(Nc2ncc(F)c(Nc3cccc(NC(=O)C=C)c3)n2)cc1`: the figures for the IC50 in experiment [1], in experiment [2] and in experiment [3] were 13300 nM, 91.7 nM and 4320 nM, respectively.

For `C=CC(=O)Nc1cccc(Nc2nc(Nc3ccc(OCCCSC(=S)N(C)C)cc3)ncc2F)c1`, the IC50 was 4980 nM in experiment [1], 13.9 nM in experiment [2] and 4360 nM in experiment [3].

In the case of `C=CC(=O)Nc1cccc(Nc2nc(Nc3ccc(OCCSC(=S)NCc4ccc(OC)cc4)cc3)ncc2F)c1`, the half-inhibitory concentration (IC50) in experiment [1] was 1280 nM; in experiment [2] it was 5.68 nM; in experiment [3], 3220 nM.

Turning to `C=CC(=O)Nc1cccc(Nc2nc(Nc3ccc(OCCSC(=S)NCc4ccncc4)cc3)ncc2F)c1`, the 50% inhibitory concentration (IC50) in experiment [1] amounted to 501 nM; in experiment [2] it was 7.36 nM; in experiment [3], 574 nM.

Consider `C=CC(=O)Nc1cccc(Nc2nc(Nc3ccc(OCCSC(=S)N4CCN(Cc5ccccc5)CC4)cc3)ncc2F)c1`, for which the half-inhibitory concentration (IC50) was over 40000 nM in experiment [1], 283 nM in experiment [2] and 2070 nM in experiment [3].

Turning to `C=CC(=O)Nc1cccc(Nc2nc(Nc3ccc(OCCSC(=S)NC4CC4)cc3)ncc2F)c1`, the half-inhibitory concentration (IC50) is 6290 nM in experiment [1], 2.5 nM in experiment [2] and 5090 nM in experiment [3].

On to `C=CC(=O)Nc1cccc(Nc2nc(Nc3ccc(OCCSC(=S)N4CCN(C(C)C)CC4)cc3)ncc2F)c1`, for which the IC50 amounted to 3930 nM in experiment [1], 56.9 nM in experiment [2] and 1020 nM in experiment [3].

On to `C=CC(=O)Nc1cccc(Nc2nc(Nc3ccc(OCCSC(=S)NCc4cnccn4)cc3)ncc2F)c1`, for which the IC50 in experiment [1] is 6570 nM; in experiment [2] it was 8.49 nM; in experiment [3], 4420 nM.

For `C=CC(=O)Nc1cccc(Nc2nc(Nc3ccc(OCCSC(=S)N(CCC)CCC)cc3)ncc2F)c1`, the IC50 was over 40000 nM in experiment [1], 241 nM in experiment [2] and over 40000 nM in experiment [3].

As for `C=CC(=O)Nc1cccc(Nc2nc(Nc3ccc(OCCSC(=S)N4CCN(CCO)CC4)cc3)ncc2F)c1`, the IC50 in experiment [1] was 7760 nM; in experiment [2], 68.3 nM; in experiment [3], 3740 nM.

Take `C=CC(=O)Nc1cccc(Nc2nc(Nc3ccc(NC(=O)CCSC(=S)NCc4cccnc4)cc3)ncc2F)c1`: the IC50 in experiment [1] was determined as 340 nM; in experiment [2], 23.7 nM; in experiment [3] it was 1220 nM.

In the case of `C=CC(=O)Nc1cccc(Nc2nc(Nc3ccc(OCCSC(=S)NCc4ccc(C#N)cc4)cc3)ncc2F)c1`, the IC50 in experiment [1] was 1220 nM; in experiment [2] it was 8.58 nM; in experiment [3] it was 1030 nM.

In the case of `C=CC(=O)Nc1cccc(Nc2nc(Nc3ccc(OCCSC(=S)NCc4ccccn4)cc3)ncc2F)c1`, the IC50 in experiment [1] is 10300 nM; in experiment [2], 18.5 nM; in experiment [3], 2670 nM.

As to `C=CC(=O)Nc1cccc(Nc2nc(Nc3ccc(OCCSC(=S)N4CCN(c5ccccc5)CC4)cc3)ncc2F)c1`, the figures for the IC50 in experiment [1], in experiment [2] and in experiment [3] were 15000 nM, 386 nM and 20600 nM, respectively.

Turning to `C=CC(=O)Nc1cccc(Nc2nc(Nc3ccc(OCCSC(=S)NC)cc3)ncc2F)c1`, the concentration for half-maximal inhibition (IC50) came out at 7170 nM in experiment [1], 8.21 nM in experiment [2] and 5940 nM in experiment [3].

For the compound `C=CC(=O)Nc1cccc(Nc2nc(Nc3ccc(OCCSC(=S)N4CCN(C)CC4)cc3)ncc2F)c1`, the IC50 in experiment [1] was 3900 nM; in experiment [2], 35.6 nM; in experiment [3], 1900 nM.

`C=CC(=O)Nc1cccc(Nc2nc(Nc3ccc(OCCSC(=S)N4CCN(C(C)=O)CC4)cc3)ncc2F)c1`: the results for the IC50 in experiment [1], in experiment [2] and in experiment [3] were 3530 nM, 80.3 nM and 2760 nM, respectively.

As to `C=CC(=O)Nc1cccc(Nc2nc(Nc3ccc(OCCSC(=S)N4CCCCC4)cc3)ncc2F)c1`, the 50% inhibitory concentration (IC50) in experiment [1] was 13400 nM; in experiment [2], 83.6 nM; in experiment [3] it was 7650 nM.

With `C=CC(=O)Nc1cccc(Nc2nc(Nc3ccc(OCCCCSC(=S)N4CCN(C(C)C)CC4)cc3)ncc2F)c1`, the half-inhibitory concentration (IC50) in experiment [1] came out at 4450 nM; in experiment [2] it was 131 nM; in experiment [3], 2920 nM.

As to `C=CC(=O)Nc1cccc(Nc2nc(Nc3ccc(OCCSC(=S)NC4CCCCC4)cc3)ncc2F)c1`, the half-inhibitory concentration (IC50) came out at 9750 nM in experiment [1], 115 nM in experiment [2] and 9460 nM in experiment [3].

For `C=CC(=O)Nc1cccc(Nc2nc(Nc3ccc(OCCSC(=S)N4CC(C)OC(C)C4)cc3)ncc2F)c1` (centres undefined), the IC50 in experiment [1] came to 6130 nM; in experiment [2], 27.1 nM; in experiment [3] it was 2290 nM.

Consider `C=CC(=O)Nc1cccc(Nc2nc(Nc3ccc(OCCSC(=S)NCc4cccc(F)c4)cc3)ncc2F)c1`, for which the IC50 in experiment [1] was found to be 1150 nM; in experiment [2], 6.9 nM; in experiment [3], 1240 nM.

Take `C=CC(=O)Nc1cccc(Nc2nc(Nc3ccc(OCCSC(=S)N4CCOCC4)cc3)ncc2F)c1`: the IC50 in experiment [1] was 4240 nM; in experiment [2], 29.9 nM; in experiment [3], 2870 nM.

Take `C=CC(=O)Nc1cccc(Nc2nc(Nc3ccc(OCCSC(=S)N4CCN(C(=O)OC(C)(C)C)CC4)cc3)ncc2F)c1`: the values for the IC50 in experiment [1], in experiment [2] and in experiment [3] were over 40000 nM, 264 nM and 14500 nM, respectively.

In the case of `C=CC(=O)Nc1cccc(Nc2nc(Nc3ccc(OCCCSC(=S)NCc4cccnc4)cc3)ncc2F)c1`, the values for the IC50 in experiment [1], in experiment [2] and in experiment [3] were 1020 nM, 2.39 nM and 1420 nM, respectively.

As for `C=CC(=O)N1CCC[C@@H](n2nc(-c3ccc(Oc4ccccc4)cc3)c3c(N)ncnc32)C1` [IBRUTINIB], the half-maximal inhibitory concentration (IC50) in experiment [1] is 17700 nM; in experiment [3] it was 1880 nM.
